Measurements taken from the supplement of paper PMC11208160.

experiment: recombinant UMI read abundance after kanamycin selection (control-corrected) (log10(CPM+1)); higher = more efficient recombination; extreme values may be limits of the assay; sequences stand for … in AGTGCAGAGAAAATCGGCCAGTTTTCTCTGCCTGCAGTCCGCATGCCGTGGGACCCCTTGGGTTCTAACCTGTTGCCTAGATTTATGCAGCGGACTGCCTTTCTCCCAAAGTGATAAACCGG…AGGTTGGTTTCACT; site = the 11-nt donor
Procedure, shortened: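 Two replicates each of selected and unselected plating were used in this pooled Escherichia coli screen of donor and donor-binding-loop pairs for the IS621 bridge recombinase. Selection was with IPTG (0.07 mM) and kanamycin. Counts of recombinant UMIs, amplified across the donor–target junction, were converted to CPM, averaged, scaled by control-derived factors and reported as log10(CPM+1).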
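Further: IS621 bridge recombinase in Escherichia coli cells against a fixed T5 target plasmid.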

Question: With “CCTAACCCATGGACCGGTTTTCCCGGTAATCCGTATTTGAG (site CCTAACCCTCT)” as the sequence, how does the “recombinant UMI read abundance (log10)” value read?
Answer: Its value is 0.00788.

Question: For “CCTAACGCATGGACCGGTTTTCCCGGTAATCCGTATTTGCT (site CCTAACGCTAG)”, which “recombinant UMI read abundance (log10)” value is on record?
Answer: The value was 0.

Question: For “CCTAATACATGGACCGGTTTTCCCGGTAATCCGTATTTGCC (site CCTAATACTGA)”, which “recombinant UMI read abundance (log10)” value is on record?
Answer: The value was 0.

Question: With “CCTAATACATGGACCGGTTTTCCCGGTAATCCGTATTTGCC (site CCTAATACTGC)” as the sequence, how does the “recombinant UMI read abundance (log10)” value read?
Answer: Its value is 0.

Question: For “CCTAATACATGGACCGGTTTTCCCGGTAATCCGTATTTGCC (site CCTAATACTGG)”, which “recombinant UMI read abundance (log10)” value is on record?
Answer: The value was 0.

Question: For “CCTAATACATGGACCGGTTTTCCCGGTAATCCGTATTTGCC (site CCTAATACTGT)”, which “recombinant UMI read abundance (log10)” value is on record?
Answer: The value was 0.

Question: Which “recombinant UMI read abundance (log10)” value does the source give for “CCTAATACATGGACCGGTTTTCCCGGTAATCCGTATTTGGA (site CCTAATACTAC)” here?
Answer: Its value is 0.

Question: With “CCTAATACATGGACCGGTTTTCCCGGTAATCCGTATTTGGA (site CCTAATACTCC)” as the sequence, how does the “recombinant UMI read abundance (log10)” value read?
Answer: The value was 0.00642.

Question: With “CCTAATACATGGACCGGTTTTCCCGGTAATCCGTATTTGGA (site CCTAATACTGC)” as the sequence, how does the “recombinant UMI read abundance (log10)” value read?
Answer: Its value is 0.

Question: With “CCTAATACATGGACCGGTTTTCCCGGTAATCCGTATTTGGA (site CCTAATACTTC)” as the sequence, how does the “recombinant UMI read abundance (log10)” value read?
Answer: The value was 0.00465.

Question: For “CCTAATACATGGACCGGTTTTCCCGGTAATCCGTATTTGGG (site CCTAATACTAC)”, which “recombinant UMI read abundance (log10)” value is on record?
Answer: Its value is 0.

Question: For “CCTAATACATGGACCGGTTTTCCCGGTAATCCGTATTTGGG (site CCTAATACTCC)”, which “recombinant UMI read abundance (log10)” value is on record?
Answer: Its value is 0.011.

Question: Which “recombinant UMI read abundance (log10)” value does the source give for “CCTAATACATGGACCGGTTTTCCCGGTAATCCGTATTTGGG (site CCTAATACTGC)” here?
Answer: Its value is 0.

Question: With “CCTAATACATGGACCGGTTTTCCCGGTAATCCGTATTTGGG (site CCTAATACTTC)” as the sequence, how does the “recombinant UMI read abundance (log10)” value read?
Answer: The value was 0.0102.

Question: For “CCTAATGCATGGACCGGTTTTCCCGGTAATCCGTATTTGAT (site CCTAAAGCTAT)”, which “recombinant UMI read abundance (log10)” value is on record?
Answer: Its value is 0.

Question: Which “recombinant UMI read abundance (log10)” value does the source give for “CCTAATGCATGGACCGGTTTTCCCGGTAATCCGTATTTGAT (site CCTAACGCTAT)” here?
Answer: The value was 0.00278.

Question: Which “recombinant UMI read abundance (log10)” value does the source give for “CCTAATGCATGGACCGGTTTTCCCGGTAATCCGTATTTGAT (site CCTAAGGCTAT)” here?
Answer: Its value is 0.

Question: Which “recombinant UMI read abundance (log10)” value does the source give for “CCTAATGCATGGACCGGTTTTCCCGGTAATCCGTATTTGAT (site CCTAATGCTAT)” here?
Answer: The value was 0.

Question: Which “recombinant UMI read abundance (log10)” value does the source give for “CCTACGCCATGGACCGGTTTTCCCGGTAATCCGTATTTGAA (site CCTACGCCTTT)” here?
Answer: Its value is 0.0231.

Question: With “CCTACTGCATGGACCGGTTTTCCCGGTAATCCGTATTTGCC (site ACTACTGCTGG)” as the sequence, how does the “recombinant UMI read abundance (log10)” value read?
Answer: The value was 0.

Question: For “CCTACTGCATGGACCGGTTTTCCCGGTAATCCGTATTTGCC (site CCTACTGCTGG)”, which “recombinant UMI read abundance (log10)” value is on record?
Answer: Its value is 0.191.

Question: Which “recombinant UMI read abundance (log10)” value does the source give for “CCTACTGCATGGACCGGTTTTCCCGGTAATCCGTATTTGCC (site GCTACTGCTGG)” here?
Answer: Its value is 0.

Question: For “CCTACTGCATGGACCGGTTTTCCCGGTAATCCGTATTTGCC (site TCTACTGCTGG)”, which “recombinant UMI read abundance (log10)” value is on record?
Answer: The value was 0.

Question: With “CCTCAAGCATGGACCGGTTTTCCCGGTAATCCGTATTTGAT (site CCTAAAGCTAT)” as the sequence, how does the “recombinant UMI read abundance (log10)” value read?
Answer: The value was 0.

Question: For “CCTCAAGCATGGACCGGTTTTCCCGGTAATCCGTATTTGAT (site CCTCAAGCTAT)”, which “recombinant UMI read abundance (log10)” value is on record?
Answer: The value was 0.0413.

Question: For “CCTCAAGCATGGACCGGTTTTCCCGGTAATCCGTATTTGAT (site CCTGAAGCTAT)”, which “recombinant UMI read abundance (log10)” value is on record?
Answer: The value was 0.00432.

Question: For “CCTCAAGCATGGACCGGTTTTCCCGGTAATCCGTATTTGAT (site CCTTAAGCTAT)”, which “recombinant UMI read abundance (log10)” value is on record?
Answer: Its value is 0.

Question: Which “recombinant UMI read abundance (log10)” value does the source give for “CCTCACTCATGGACCGGTTTTCCCGGTAATCCGTATTTGCT (site CCTCACTCTAG)” here?
Answer: The value was 0.747.

Question: Which “recombinant UMI read abundance (log10)” value does the source give for “CCTCCGGCATGGACCGGTTTTCCCGGTAATCCGTATTTGGT (site CCTCCGGCTAC)” here?
Answer: Its value is 0.0132.

Question: With “CCTCGATCATGGACCGGTTTTCCCGGTAATCCGTATTTGGC (site CCTCGATCTGC)” as the sequence, how does the “recombinant UMI read abundance (log10)” value read?
Answer: Its value is 0.

Question: With “CCTCGGACATGGACCGGTTTTCCCGGTAATCCGTATTTGGT (site CCTCGGACTAC)” as the sequence, how does the “recombinant UMI read abundance (log10)” value read?
Answer: The value was 0.013.

Question: For “CCTCGTACATGGACCGGTTTTCCCGGTAATCCGTATTTGAG (site CCTCGTACTCT)”, which “recombinant UMI read abundance (log10)” value is on record?
Answer: The value was 0.0191.

Question: For “CCTGCAGCATGGACCGGTTTTCCCGGTAATCCGTATTTGGC (site CCTGCAGCTGC)”, which “recombinant UMI read abundance (log10)” value is on record?
Answer: Its value is 0.

Question: Which “recombinant UMI read abundance (log10)” value does the source give for “CCTGGTTCATGGACCGGTTTTCCCGGTAATCCGTATTTGAC (site CCTGGTTCTGT)” here?
Answer: The value was 0.

Question: With “CCTGTCGCATGGACCGGTTTTCCCGGTAATCCGTATTTGAA (site CCTGTCGCTTT)” as the sequence, how does the “recombinant UMI read abundance (log10)” value read?
Answer: The value was 0.0175.

Question: For “CCTGTCGCATGGACCGGTTTTCCCGGTAATCCGTATTTGAC (site CCTGTCGCTGT)”, which “recombinant UMI read abundance (log10)” value is on record?
Answer: Its value is 0.

Question: With “CCTTAACCATGGACCGGTTTTCCCGGTAATCCGTATTTGCT (site CCTTAACCTAG)” as the sequence, how does the “recombinant UMI read abundance (log10)” value read?
Answer: Its value is 0.

Question: Which “recombinant UMI read abundance (log10)” value does the source give for “CCTTACGCATGGACCGGTTTTCCCGGTAATCCGTATTTGGC (site CCTTACGCTGC)” here?
Answer: The value was 0.
